Measured values from BindingDB's records for doi:10.1021/jm010246u (University of Texas At Austin, 2001).
pIC50: −log10 of the molar value.

Legend:
[1] = target: T1, Telomerase reverse transcriptase (Homo sapiens, UniProt O14746); experiment: Apparent telomerase inhibition by G-quadruplex mechanism
[2] = target: T1, Telomerase reverse transcriptase; experiment: Apparent telomerase inhibition by primer mechanism

T1 sequence (O14746 whole entry): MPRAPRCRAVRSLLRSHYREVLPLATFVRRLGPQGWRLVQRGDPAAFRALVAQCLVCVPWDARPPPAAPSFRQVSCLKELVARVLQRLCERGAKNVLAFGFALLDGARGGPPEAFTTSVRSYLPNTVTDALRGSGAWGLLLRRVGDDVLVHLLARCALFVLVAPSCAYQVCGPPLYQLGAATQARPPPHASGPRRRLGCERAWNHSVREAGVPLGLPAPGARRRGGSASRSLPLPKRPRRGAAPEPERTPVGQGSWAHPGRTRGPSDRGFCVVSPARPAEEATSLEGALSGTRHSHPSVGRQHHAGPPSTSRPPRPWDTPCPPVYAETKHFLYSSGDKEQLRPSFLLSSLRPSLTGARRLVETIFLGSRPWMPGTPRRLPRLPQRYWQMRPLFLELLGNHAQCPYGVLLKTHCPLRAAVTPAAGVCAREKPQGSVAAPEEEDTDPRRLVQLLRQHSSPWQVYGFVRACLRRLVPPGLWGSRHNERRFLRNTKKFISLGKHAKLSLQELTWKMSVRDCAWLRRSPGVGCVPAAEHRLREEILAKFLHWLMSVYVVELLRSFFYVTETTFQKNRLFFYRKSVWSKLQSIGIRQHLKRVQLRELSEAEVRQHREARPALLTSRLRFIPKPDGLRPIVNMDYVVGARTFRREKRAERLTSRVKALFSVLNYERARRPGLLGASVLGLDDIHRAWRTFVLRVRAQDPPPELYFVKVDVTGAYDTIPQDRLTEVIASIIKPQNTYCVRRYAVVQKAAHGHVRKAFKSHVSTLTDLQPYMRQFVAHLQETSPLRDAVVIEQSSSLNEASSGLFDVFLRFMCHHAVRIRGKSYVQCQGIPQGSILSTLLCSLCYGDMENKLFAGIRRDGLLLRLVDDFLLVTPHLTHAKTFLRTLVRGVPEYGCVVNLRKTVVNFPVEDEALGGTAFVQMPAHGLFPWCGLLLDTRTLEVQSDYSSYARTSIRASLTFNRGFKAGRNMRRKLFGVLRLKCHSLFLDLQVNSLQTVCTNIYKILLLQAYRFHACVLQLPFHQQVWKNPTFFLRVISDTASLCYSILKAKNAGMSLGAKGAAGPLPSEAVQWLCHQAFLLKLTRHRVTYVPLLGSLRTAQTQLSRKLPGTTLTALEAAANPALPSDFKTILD

SMILES | pIC50 [1] | pIC50 [2]
C[n+]1ccc(-c2c3nc(c(-c4cc[n+](C)cc4)c4ccc([nH]4)c(-c4cc[n+](C)cc4)c4nc(c(-c5cc[n+](C)cc5)c5ccc2[nH]5)C=C4)C=C3)cc1 | 5.10 | 
C[n+]1ccc(-c2c3nc(c(-c4cccc([N+](=O)[O-])c4)c4nc(c(-c5cc[n+](C)cc5)c5ccc([nH]5)c(-c5cccc([N+](=O)[O-])c5)c5ccc2[nH]5)C=C4)C=C3)cc1 | 4.60 | 
C[n+]1ccc(-c2c3nc(c(-c4cc[n+](C)cc4)c4ccc([nH]4)c(-c4cccc([N+](=O)[O-])c4)c4ccc([nH]4)c(-c4cc[n+](C)cc4)c4nc2C=C4)C=C3)cc1 | 4.92 | 
CC[n+]1ccc(-c2c3nc(c(-c4cc[n+](CC)cc4)c4ccc([nH]4)c(-c4cc[n+](CC)cc4)c4ccc([nH]4)c(-c4cc[n+](CC)cc4)c4nc2C=C4)C=C3)cc1 | 4.60 | 
C[n+]1cc(-c2ccco2)cc(-c2c3nc(c(-c4cc(-c5ccco5)c[n+](C)c4)c4ccc([nH]4)c(-c4cc(-c5ccco5)c[n+](C)c4)c4ccc([nH]4)c(-c4cc(-c5ccco5)c[n+](C)c4)c4nc2C=C4)C=C3)c1 [5,10,15,20-tetra[5-(2-furfuryl)-N-methyl-3-pyridyl]porphyrin chloride] |  | 5.10
